From patent publication US20050203191A1, “1-Aminocyclohexane derivatives for the treatment of agitation and other behavioral disorders, especially those associated with alzheimer's disease” (priority 2004, published 2005)

Key:
[1] = tested on: patients with moderate-to-severe AD; test: MD-01: 24-week trial of memantine as monotherapy; type: in vivo, human; conditions: MD-01, week 24, ITT LOCF
Protocol: MD-01: MD-01 was a trial evaluating memantine as monotherapy for the treatment of patients with moderate-to-severe AD lasting for 24 weeks. About 350 patients were enrolled. Efficacy was evaluated using the Severe Impairment Battery (SIB), the Assessment of Daily Living (ADL) and the CIBIC-plus Scales.
(§1) The five memantine trials were evaluated using an analysis of patient for a population having an NPI agitation subscale score of >4 ([…]) and for a population having an NPI score of <4 ([…]). For each NPI population, changes in SIB, ADAS-cog and/or ADL were calculated using the least square (LS) mean difference for memantine and placebo-treated patients. Similarly, for each NPI population, the raw mean difference between memantine and placebo was calculated for the CIBIC-plus results.
(§2) For primary efficacy measurements the comparison between memantine and placebo was performed using two-way analysis of covariance (ANCOVA) with treatment group and center as the two factors, and the baseline scores as covariate. Both the LOCF imputation approach and the OC approach are performed at the end of the trials.
(§3) For secondary efficacy measurements, the comparison between memantine and placebo was performed using two-way analysis of covariance (ANCOVA) with treatment group and center as the two main effects, and the baseline scores as covariate. Descriptive statistics were calculated by Visit. Again, all analyses were performed using both the LOCF imputation approach and the OC approach.
(§4) Results of ANCOVA were summarized using least square (LS) means for each treatment group with corresponding standard error (SE), the between-treatment (2-24 week) difference in the least square means with corresponding 95% confidence interval, and the between-treatment p-value corresponds to the SAS Type III sum of squares.
(§5) In data Tables 5-19, the Overall Memantine versus Placebo columns of studies MD-01, MD-02, MD-10 and MD-12 used an ANCOVA model with baseline total score as covariate, treatment and study center as factors for SIB, ADL or ADAS-cog; CMH test controlling for study center for CIBIC-Plus. For MZ-9605, results are based on arithmetic means and the Wilcoxon-Mann-Whitney test. The Agitation score columns/NPI/antipsychotics columns, except CIBIS-Plus, calculated the p-values and LS mean differences within the subgroups from an ANCOVA model with baseline total score as covariate, subgroup (yes/no), treatment, and treatment by subgroup interactions as factors. For CIBIS-Plus, the p-values and raw mean differences within a subgroup were calculated using the CMH test controlling for study center.
(§6) Patients in the same five trials described above were stratified into two sub-groups in a second analysis, those with an NPI total score in the top quartile (≧75%), or those more severely impaired at baseline, and those with an NPI total score <75%, or less severe impairment at baseline. Similar to as in Example 1, results were evaluated using the change in SIB (cognitive endpoint), and change in ADCS-ADL (functional endpoint), using the LS mean. The change in the CIBIC-plus (global endpoint) was assessed using the raw mean.
(§7) A sub-population of patients from the five trials, MD-01, MD-02, MD-10, MD-12, and MZ-9605, were concurrently taking antipsychotics.

[2] = tested on: patients with mild to moderate dementia of the Alzheimer's type; test: MD-10: randomized, double-blind, placebo-controlled evaluation of memantine; type: in vivo, human; conditions: MD-10, week 24, ITT LOCF
Protocol: MD-10: MD-10 was a randomized, double-blind, placebo-controlled evaluation of the safety and efficacy of memantine in patients with mild to moderate dementia of the Alzheimer's type. The primary endpoints for MD-10 were ADAS-cog and CIBIC-plus. Other endpoints for MD-10 included ADCS-ADL, NPI, and RUD (Resource Utilization in Dementia).
as §1, §2, §3, §4, §5, §6, §7

[3] = NPI total score ≧=75% (top quartile)
[4] = antipsychotics usage “YES” (N = n)
[5] = antipsychotics usage “YES” (N = y)
[6] = baseline NPI agitation score <4
[7] = baseline NPI agitation score ≧=4
[8] = baseline NPI agitation score ≧=4, listed as MEM

Compound: CC12CC3CC(C)(C1)CC(N)(C3)C2 [memantine, 1-amino-3,5-dimethyl adamantane]
- ADCS-ADL (change) LS Mean Diff., MEM v. PLA ([1]; NPI total score <75%): 0.87
- ADCS-ADL (change) mean ([1]; NPI total score <75%): −1.1
- CIBIC-PLUS Raw Mean Diff., MEM v. PLA ([1]; NPI total score <75%): −0.2
- CIBIC-PLUS mean ([1]; NPI total score <75%): 4.3
- SIB (change) LS Mean Diff., MEM v. PLA ([1]; NPI total score <75%): 0.3
- SIB (change) mean ([1]; NPI total score <75%): −1.2
- ADCS-ADL (change) LS Mean Diff., MEM v. PLA [1, 3]: −0.05
- ADCS-ADL (change) mean [1, 3]: −2.3
- CIBIC-PLUS Raw Mean Diff., MEM v. PLA [1, 3]: −0.2
- CIBIC-PLUS mean [1, 3]: 4.5
- SIB (change) LS Mean Diff., MEM v. PLA [1, 3]: 3.5
- SIB (change) mean [1, 3]: −2.8
- ADCS-ADL (change) LS Mean Diff., MEM v. PLA [1, 4]: 0.8
- ADCS-ADL (change) mean [1, 4]: −0.8
- CIBIC-PLUS Raw Mean Diff., MEM v. PLA [1, 4]: −0.26
- CIBIC-PLUS mean [1, 4]: 4.26
- SIB (change) LS Mean Diff., MEM v. PLA [1, 4]: 1.7
- SIB (change) mean [1, 4]: −0.5
- ADCS-ADL (change) LS Mean Diff., MEM v. PLA [1, 5]: −0.15
- ADCS-ADL (change) mean [1, 5]: −3.8
- CIBIC-PLUS Raw Mean Diff., MEM v. PLA [1, 5]: −0.1
- CIBIC-PLUS mean [1, 5]: 4.63
- SIB (change) LS Mean Diff., MEM v. PLA [1, 5]: −1.9
- SIB (change) mean [1, 5]: −6.2
- ADCS-ADL (change) LS Mean Diff., MEM v. PLA [1, 6]: 0.36
- ADCS-ADL (change) mean [1, 6]: −1.3
- CIBIC-PLUS Raw Mean Diff., MEM v. PLA [1, 6]: −0.2
- CIBIC-PLUS mean [1, 6]: 4.3
- SIB (change) LS Mean Diff., MEM v. PLA [1, 6]: −0.15
- SIB (change) mean [1, 6]: −1.9
- ADCS-ADL (change) LS Mean Diff., MEM v. PLA [1, 7]: 1.18
- ADCS-ADL (change) mean [1, 7]: −3.2
- CIBIC-PLUS Raw Mean Diff., MEM v. PLA [1, 7]: 0
- CIBIC-PLUS mean [1, 7]: 4.7
- SIB (change) LS Mean Diff., MEM v. PLA [1, 7]: 4.65
- SIB (change) mean [1, 7]: −1.0
- ADCS-ADL (change) mean [1, 8]: −2.2
- CIBIC-PLUS Raw Mean Diff., MEM v. PLA [1, 8]: 0.0
- ADCS-ADL (change) LS Mean Diff., MEM v. PLA ([1]; overall): 0.70
- ADCS-ADL (change) LS mean ([1]; overall): −2.00
- CIBIC-PLUS LS mean ([1]; overall): 4.30
- CIBIC-PLUS Raw Mean Diff., MEM v. PLA ([1]; overall): −0.30
- SIB (change) LS Mean Diff., MEM v. PLA ([1]; overall): 0.60
- SIB (change) LS mean ([1]; overall): −2.00
- ADAS-cog (change) LS Mean Diff., MEM v. PLA ([2]; NPI total score <75%): −1.59
- ADAS-cog (change) mean ([2]; NPI total score <75%): −0.08
- ADCS-ADL (change) LS Mean Diff., MEM v. PLA ([2]; NPI total score <75%): 0.11
- ADCS-ADL (change) mean ([2]; NPI total score <75%): −2.67
- CIBIC-PLUS Raw Mean Diff., MEM v. PLA ([2]; NPI total score <75%): −0.32
- CIBIC-PLUS mean ([2]; NPI total score <75%): 4.16
- ADAS-cog (change) LS Mean Diff., MEM v. PLA [2, 3]: −2.53
- ADAS-cog (change) mean [2, 3]: −1.18
- ADCS-ADL (change) LS Mean Diff., MEM v. PLA [2, 3]: 0.70
- ADCS-ADL (change) mean [2, 3]: −5.04
- CIBIC-PLUS Raw Mean Diff., MEM v. PLA [2, 3]: −0.3
- CIBIC-PLUS mean [2, 3]: 4.33
- ADAS-COG (change) LS Mean Diff., MEM v. PLA (second parameter of Table 19) [2, 4]: 0.31
- ADAS-COG (change) mean (second parameter of Table 19) [2, 4]: −2.69
- ADAS-cog (change) LS Mean Diff., MEM v. PLA [2, 4]: −1.93
- ADAS-cog (change) mean [2, 4]: −0.54
- CIBIC-PLUS Raw Mean Diff., MEM v. PLA [2, 4]: −0.29
- CIBIC-PLUS mean [2, 4]: 4.18
- ADAS-COG (change) LS Mean Diff., MEM v. PLA (second parameter of Table 19) [2, 5]: −0.017
- ADAS-COG (change) mean (second parameter of Table 19) [2, 5]: −7.95
- ADAS-cog (change) LS Mean Diff., MEM v. PLA [2, 5]: −0.74
- ADAS-cog (change) mean [2, 5]: 1.42
- CIBIC-PLUS Raw Mean Diff., MEM v. PLA [2, 5]: −0.51
- CIBIC-PLUS mean [2, 5]: 4.40
- ADAS-cog (change) LS Mean Diff., MEM v. PLA [2, 6]: −1.87
- ADAS-cog (change) mean [2, 6]: −0.49
- ADCS-ADL (change) LS Mean Diff., MEM v. PLA [2, 6]: 0.65
- ADCS-ADL (change) mean [2, 6]: −3
- CIBIC-PLUS Raw Mean Diff., MEM v. PLA [2, 6]: −0.36
- CIBIC-PLUS mean [2, 6]: 4.18
- ADAS-cog (change) LS Mean Diff., MEM v. PLA [2, 7]: −1.39
- ADAS-cog (change) mean [2, 7]: 0.86
- ADCS-ADL (change) LS Mean Diff., MEM v. PLA [2, 7]: −2.66
- ADCS-ADL (change) mean [2, 7]: −5.05
- CIBIC-PLUS Raw Mean Diff., MEM v. PLA [2, 7]: no difference
- CIBIC-PLUS mean [2, 7]: 4.36
- CIBIC-PLUS Raw Mean Diff., MEM v. PLA [2, 8]: 0.0
- ADAS-cog (change) LS Mean Diff., MEM v. PLA ([2]; overall): −1.90
- ADAS-cog (change) LS mean ([2]; overall): −0.80
- ADCS-ADL (change) LS Mean Diff., MEM v. PLA ([2]; overall): 0.10
- ADCS-ADL (change) LS mean ([2]; overall): −2.90
- CIBIC-PLUS LS mean ([2]; overall): 4.20
- CIBIC-PLUS Raw Mean Diff., MEM v. PLA ([2]; overall): −0.30
